# Source: PubChem BioAssay (NCI)
#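 Growth conditions: 96-well plates. Treatment: test compound, 48 hours, 5 concentrations. Analysis: linear interpolation between bracketing concentrations; unreached endpoints set to highest concentration. TGI denotes the concentration required for complete inhibition of growth.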
# What was measured:
# Test in all cases: growth of human tumour cells (NCI), 48 h
# OVCAR-4 ovarian = tested on: OVCAR-4 ovarian
# SF-295 CNS = tested on: SF-295 CNS
# UO-31 renal = tested on: UO-31 renal
# OVCAR-8 ovarian = tested on: OVCAR-8 ovarian
# MCF7 breast = tested on: MCF7 breast
# IGROV1 ovarian = tested on: IGROV1 ovarian
# RXF 393 renal = tested on: RXF 393 renal
# HCC-2998 colon = tested on: HCC-2998 colon
# HOP-92 NSCLC = tested on: HOP-92 NSCLC
# TK-10 renal = tested on: TK-10 renal
# MDA-MB-435 = tested on: MDA-MB-435
# EKVX NSCLC = tested on: EKVX NSCLC
# CCRF-CEM leukemia = tested on: CCRF-CEM leukemia
# SR leukemia = tested on: SR leukemia
# SK-MEL-5 melanoma = tested on: SK-MEL-5 melanoma
# MDA-MB-231 breast = tested on: MDA-MB-231 breast
# KM12 colon = tested on: KM12 colon
# HL-60(TB) leukemia = tested on: HL-60(TB) leukemia
# NCI/ADR-RES ovarian = tested on: NCI/ADR-RES ovarian
# K-562 leukemia = tested on: K-562 leukemia
# MALME-3M melanoma = tested on: MALME-3M melanoma
# NCI-H226 lung = tested on: NCI-H226 lung
# NCI-H460 lung = tested on: NCI-H460 lung
# SNB-75 CNS = tested on: SNB-75 CNS
# SW-620 colon = tested on: SW-620 colon
# SN12C renal = tested on: SN12C renal
# UACC-257 melanoma = tested on: UACC-257 melanoma
# SK-MEL-2 melanoma = tested on: SK-MEL-2 melanoma
# HT29 colon = tested on: HT29 colon
# HOP-62 NSCLC = tested on: HOP-62 NSCLC
# OVCAR-5 ovarian = tested on: OVCAR-5 ovarian
# COLO 205 colon = tested on: COLO 205 colon
# UACC-62 melanoma = tested on: UACC-62 melanoma
# SK-OV-3 ovarian = tested on: SK-OV-3 ovarian
# RPMI-8226 leukemia = tested on: RPMI-8226 leukemia
# MOLT-4 leukemia = tested on: MOLT-4 leukemia
# 786-0 renal = tested on: 786-0 renal
# A549 NSCLC = tested on: A549 NSCLC
# HCT-15 colon = tested on: HCT-15 colon
# M14 melanoma = tested on: M14 melanoma
# ACHN renal = tested on: ACHN renal
# SF-539 CNS = tested on: SF-539 CNS
# NCI-H23 lung = tested on: NCI-H23 lung
# OVCAR-3 ovarian = tested on: OVCAR-3 ovarian
# NCI-H522 lung = tested on: NCI-H522 lung
# PC-3 prostate = tested on: PC-3 prostate
# CAKI-1 renal = tested on: CAKI-1 renal
# U251 CNS = tested on: U251 CNS
# SNB-19 CNS = tested on: SNB-19 CNS
# HS 578T breast = tested on: HS 578T breast
# HCT-116 colon = tested on: HCT-116 colon
# A498 renal = tested on: A498 renal
# MDA-N = tested on: MDA-N
# BT-549 breast = tested on: BT-549 breast
# DU-145 prostate = tested on: DU-145 prostate
# T-47D breast = tested on: T-47D breast
# LOX IMVI melanoma = tested on: LOX IMVI melanoma
# SK-MEL-28 melanoma = tested on: SK-MEL-28 melanoma
# SF-268 CNS = tested on: SF-268 CNS
smiles,measurement,setting,value
COc1ccc(C(CC(=O)C(C)(C)CN2CCCCC2)SCCS(=O)(=O)O)cc1 (stereo unspecified),TGI,OVCAR-4 ovarian,> 100 µM
same,TGI,SF-295 CNS,> 100 µM
same,TGI,UO-31 renal,> 100 µM
same,TGI,OVCAR-8 ovarian,> 100 µM
same,TGI,MCF7 breast,> 100 µM
same,TGI,IGROV1 ovarian,> 100 µM
same,TGI,RXF 393 renal,> 100 µM
same,TGI,HCC-2998 colon,> 100 µM
same,TGI,HOP-92 NSCLC,47.2 µM
same,TGI,TK-10 renal,> 100 µM
same,TGI,MDA-MB-435,52.3 µM
same,TGI,EKVX NSCLC,> 100 µM
same,TGI,CCRF-CEM leukemia,55.1 µM
same,TGI,SR leukemia,49.7 µM
same,TGI,SK-MEL-5 melanoma,62.5 µM
same,TGI,MDA-MB-231 breast,75.1 µM
same,TGI,KM12 colon,> 100 µM
same,TGI,HL-60(TB) leukemia,67 µM
same,TGI,NCI/ADR-RES ovarian,> 100 µM
same,TGI,K-562 leukemia,> 100 µM
same,TGI,MALME-3M melanoma,84.8 µM
same,TGI,NCI-H226 lung,> 100 µM
same,TGI,NCI-H460 lung,> 100 µM
same,TGI,SNB-75 CNS,91.9 µM
same,TGI,SW-620 colon,> 100 µM
same,TGI,SN12C renal,> 100 µM
same,TGI,UACC-257 melanoma,> 100 µM
same,TGI,SK-MEL-2 melanoma,> 100 µM
same,TGI,HT29 colon,83.2 µM
same,TGI,HOP-62 NSCLC,> 100 µM
same,TGI,OVCAR-5 ovarian,> 100 µM
same,TGI,COLO 205 colon,> 100 µM
same,TGI,UACC-62 melanoma,> 100 µM
same,TGI,SK-OV-3 ovarian,> 100 µM
same,TGI,RPMI-8226 leukemia,63.9 µM
same,TGI,MOLT-4 leukemia,57 µM
same,TGI,786-0 renal,60.7 µM
same,TGI,A549 NSCLC,> 100 µM
same,TGI,HCT-15 colon,> 100 µM
same,TGI,M14 melanoma,57.2 µM
same,TGI,ACHN renal,> 100 µM
same,TGI,SF-539 CNS,38.8 µM
same,TGI,NCI-H23 lung,98.7 µM
same,TGI,OVCAR-3 ovarian,38.3 µM
same,TGI,NCI-H522 lung,43.4 µM
same,TGI,PC-3 prostate,> 100 µM
same,TGI,CAKI-1 renal,> 100 µM
same,TGI,U251 CNS,> 100 µM
same,TGI,SNB-19 CNS,> 100 µM
same,TGI,HS 578T breast,> 100 µM
same,TGI,HCT-116 colon,> 100 µM
same,TGI,A498 renal,74.3 µM
same,TGI,MDA-N,96.2 µM
same,TGI,BT-549 breast,> 100 µM
same,TGI,DU-145 prostate,> 100 µM
CO/N=C(\C(=O)N(C)n1cnnc1)c1csc(NC(c2ccccc2)(c2ccccc2)c2ccccc2)n1,TGI,OVCAR-4 ovarian,> 10 µM
same,TGI,SF-295 CNS,> 10 µM
same,TGI,UO-31 renal,> 10 µM
same,TGI,OVCAR-8 ovarian,> 10 µM
same,TGI,MCF7 breast,> 10 µM
same,TGI,IGROV1 ovarian,> 10 µM
same,TGI,RXF 393 renal,> 10 µM
same,TGI,HCC-2998 colon,> 10 µM
same,TGI,T-47D breast,> 10 µM
same,TGI,HOP-92 NSCLC,> 10 µM
same,TGI,TK-10 renal,> 10 µM
same,TGI,EKVX NSCLC,> 10 µM
same,TGI,CCRF-CEM leukemia,> 10 µM
same,TGI,SR leukemia,> 10 µM
same,TGI,SK-MEL-5 melanoma,> 10 µM
same,TGI,KM12 colon,> 10 µM
same,TGI,HL-60(TB) leukemia,> 10 µM
same,TGI,NCI/ADR-RES ovarian,> 10 µM
same,TGI,K-562 leukemia,> 10 µM
same,TGI,MALME-3M melanoma,> 10 µM
same,TGI,NCI-H226 lung,> 10 µM
same,TGI,NCI-H460 lung,> 10 µM
same,TGI,LOX IMVI melanoma,> 10 µM
same,TGI,SNB-75 CNS,> 10 µM
same,TGI,SW-620 colon,> 10 µM
same,TGI,SN12C renal,> 10 µM
same,TGI,UACC-257 melanoma,> 10 µM
same,TGI,SK-MEL-2 melanoma,> 10 µM
same,TGI,HT29 colon,> 10 µM
same,TGI,HOP-62 NSCLC,> 10 µM
same,TGI,OVCAR-5 ovarian,> 10 µM
same,TGI,COLO 205 colon,> 10 µM
same,TGI,SK-MEL-28 melanoma,> 10 µM
same,TGI,SK-OV-3 ovarian,> 10 µM
same,TGI,RPMI-8226 leukemia,> 10 µM
same,TGI,MOLT-4 leukemia,> 10 µM
same,TGI,786-0 renal,> 10 µM
same,TGI,A549 NSCLC,> 10 µM
same,TGI,HCT-15 colon,> 10 µM
same,TGI,M14 melanoma,> 10 µM
same,TGI,SF-268 CNS,> 10 µM
same,TGI,ACHN renal,> 10 µM
same,TGI,SF-539 CNS,> 10 µM
same,TGI,NCI-H23 lung,> 10 µM
same,TGI,OVCAR-3 ovarian,> 10 µM
same,TGI,NCI-H522 lung,> 10 µM
same,TGI,PC-3 prostate,> 10 µM
same,TGI,CAKI-1 renal,> 10 µM
same,TGI,U251 CNS,> 10 µM
same,TGI,SNB-19 CNS,> 10 µM
same,TGI,HS 578T breast,> 10 µM
same,TGI,HCT-116 colon,> 10 µM
same,TGI,A498 renal,> 10 µM
same,TGI,MDA-N,> 10 µM
same,TGI,BT-549 breast,> 10 µM
same,TGI,DU-145 prostate,> 10 µM
